Data on 10 compounds can be found in article PMC6941404, “Pigmentosins from Gibellula sp. as antibiofilm agents and a new glycosylated asperfuran from Cordyceps javanica” (Beilstein Journal of Organic Chemistry, 2019).

≈ marks a conversion by molar mass, not a printed value. Read-outs that look alike come from different tables or passages of the source.

The nature of one data set: Cytotoxicity assay (MTT). In kind it is cell-based. The protocol:
(§1) To evaluate the biological effects of compounds 1–6, various assays were carried out. The antimicrobial activity of the isolated compounds against Bacillus subtilis DSM10, Escherichia coli DSM498, Candida tenuis MUCL29892, and Mucor plumbeus MUCL49355 was determined as described by Kuephadungphan and co-workers. The nematicidal activity against Caenorhabditis elegans was investigated using a microtiter plate assay according to Helaly and co-workers, while the cytotoxicity was tested against murine fibroblast (L929) and human HeLa (KB3.1) cell lines according to Chepkirui and co-workers.
(§2) Biological activity screening of compounds 1–6 […]
The isolated compounds were tested for cytotoxic activity using the MTT (3 -(4,5-dimethylthiayol -2-yl)-2,5-diphenyltetrayolium bromide) method in 96 -well microtiter plates following the procedure previously described by Chepkirui et al.7 against th e cervix carcino ma cell line KB3.1 and the established mouse fibroblast cell line L929. The assay was kindly conducted by Wera Collisi, Department of Microbial Drugs, Helmholtz Centre of Infection Research, Germany. The tested cell lines were cultured in EBM -2 (Lonza) sup plemented with 10% fetal bovine serum (Gibco) under 10% CO2 at 37 °C. A 60 µL of serial dilutions from an initial stock (1 mg/mL) of the test compounds in MeOH was added to 120 µL aliquots of a cell suspension (50,000 cells/mL) in 96-well microplates.
After incubation for five days, 20 µL of MTT in phosphate buffered saline (PBS) were added to give a final concentration of 0.5 mg/mL. The plates were further incubated for two hours. The precipitate […]
of formazan crystals was centrifuged and the supernatant was then discarded. Each well was washed with 100 µL of PBS and 100 µL of isopropanol containing 0.4% hydrochloric acid were subsequently added in order to get the residual dissolved. The plates were gently shaken for 20 min before the absorbance at 590 nm was measured using an ELISA microplate reader (Victor). The concentration, at which the growth of cells was inhibited to 50% of the control (IC50), was obtained from the dose - response curves. Methanol was used as negative control while epothilone A and B wer e used as positive controls for L929 and KB3.1 cell lines, respectively. […]
(§3) After incubation at 37 °C under shaking condition, the overnight cultures were adjusted to equal the turbidity of 0.5 McFarland standard using the assay medium. The assay was carried out in 96 -well tissue cultured -treated microplates (TPP®, Germany) for S. aureus and non-treated plates (Falcon®MicroTestTM, USA) for P. aeruginosa , in which 10 μ L of each compound (0.5 mg/m L) in six replicates were mixed together with 140 μ L of bacterial suspension. Methanol and CASO medium with and without 4% glucose were used as negative controls and tetracycline (100 μg/m L) as positive control. Plates were covered with a sterile adhesive porous paper (Kisker Biotech GmbH, Steinfurt, Germany) and incubated at 37 °C for 24 h.
After incubation, ba cterial biofilms were stained with 0.1% crystal violet solution (Sigma -Aldrich) following the protocol of O’Toole .9 Then, the biofilm was subsequently quantified using a microplate reader at 550 nm. […]
aeruginosa PA14 were further evaluated for their bacteriostatic and bactericidal activit ies. The assay was performed in the Bioscreen 100 -well Honeycomb plate according to the protocol described by Yuyama et al. 13 where the MIC values were determined. […]

Data set [1] deals with Staphylococcus aureus DSM1104. The experiment in a line: Anti-biofilm activity, microtiter dish biofilm formation assay. The data set is classed as cell-based. To be noted: S. aureus DSM1104 (ATCC25923); lowest concentration preventing biofilm formation by at least 50%; 24 h; NA = No activity. On the procedure:
(§4) The isolated compounds were also tested for their ability to interfere in the biofilm formation of Staphylococcus aureus DSM1104 and Pseudomonas aeruginosa PA14 [51]. The biofilm inhibition assay was performed in 96-well microtiter plates using the microtiter dish biofilm formation assay described by O’Toole, with minor modifications, as outlined in our recent publications. The antibiofilm activity is expressed as MIC values, which is defined as the lowest concentration of substance that prevents biofilm formation of a target microorganism by at least 50%. […]
(§5) Anti-biofilm activity assay
as §3, with “The determination of the ability of isolated compounds to prevent biofilm formation of S. aureus DSM1104 (ATCC25923) and P. aeruginosa PA148 was performed using the microtiter dish biofilm formation assay described by O’Toole9 with minor modification provided in our recent publications 1, 6, 10–14. The biofilm forming strains were enriched overnight in CASO medium with and without 4% glucose for S. aureus and P. aeruginosa , respectively. After” for “After”
(§6) After incubation, ba cterial biofilms were stained with 0.1% crystal violet solution (Sigma -Aldrich) following the protocol of O’Toole .9 Then, the biofilm was subsequently quantified using a microplate reader at 550 nm. 12 In the current study, the antibiofilm activity was expr essed as MIC value which was defined as the lowest concentration of substance that prevents the biofilm formation of a target microorganism by at least 50%. […]

The next data set relates to Candida tenuis MUCL29892. The experiment in a line: Antimicrobial activity, broth microdilution MIC. Particulars: Candida tenuis MUCL 29892; 48 h; NA = No activity. In kind it is cell-based. The protocol: as §1
(§7) Biological activity screening of compounds 1–6
(§8) Antimicrobial activity assay
(§9) The minimum inhibitory concentration (MIC) of compounds 1–6 was determined using the broth microdilution method according to Kuephadungphan et al.4 against B. subtilis DSM10, E. coli DSM498, C. tenuis MUCL29892 and M. plumbeus MUCL49355. Stock suspension of each bacterium and yeast (100 μL) was transferred to 100 mL of EBS medium and YM medium, respectively.
(§10) Suspensions of B. subtilis and C. tenuis were incubated on a rotary shaker at 30 °C for 18–24 h while E. coli was grown at 37 °C for 24 h. After incubation, the suspension was adjusted to a concentration of 6.7 × 10^5 cells/mL using a hemacytometer. The spore suspension of M. plumbeus was prepared at a concentration of 6.7 × 10^5 conidia/mL using YM medium. The determination of MIC was performed in a 96-well microtiter plate. The compounds dissolved in methanol at a concentration of 4.5 mg/mL (20 μL) were transferred to the first row of the plate. Standard antibiotics including ciprofloxacin (bacteria) and nystatin (yeast and fungus), and methanol were used as positive and negative controls, respectively. Inoculum suspension (280 μL) was added to the first row containing compounds and 150 μL were added to the rest. The solutions were then serially 2-fold diluted to 8 concentrations ranging from 2.34–300 μg/mL. Plates were incubated at 30 °C on a microplate-vibrating shaker for 24 h for bacteria and 48 h for yeast and filamentous fungus. […]
(§11) The assay was kindly conducted by Wera Collisi, Department of Microbial Drugs, Helmholtz Centre of Infection Research, Germany. The tested cell lines were cultured in EBM -2 (Lonza) sup plemented with 10% fetal bovine serum (Gibco) under 10% CO2 at 37 °C. A 60 µL of serial dilutions from an initial stock (1 mg/mL) of the test compounds in MeOH was added to 120 µL aliquots of a cell suspension (50,000 cells/mL) in 96-well microplates.
(§12) After incubation for five days, 20 µL of MTT in phosphate buffered saline (PBS) were added to give a final concentration of 0.5 mg/mL. The plates were further incubated for two hours. The precipitate
Background: In broth dilution the organism is exposed to a series of concentrations in liquid medium.

The next data set has as its system Bacillus subtilis DSM10. The experiment in a line: Antimicrobial activity, broth microdilution MIC. In kind it is cell-based. Particulars: Bacillus subtilis DSM10, 24 h, range 2.34–300 μg/mL, NA = No activity. On the procedure:
as §1, §7, §8, §9, §10, §11, §12

Another data set relates to Escherichia coli DSM498. The experiment in a line: Antimicrobial activity, broth microdilution MIC. The data set is classed as cell-based. To be noted: 24 h, NA = No activity. The protocol: as §1, §7, §8, §9, §10, §11, §12
The next data set has as its system Mucor plumbeus MUCL49355. The experiment in a line: Antimicrobial activity, broth microdilution MIC. The data set is classed as cell-based. Particulars: Mucor plumbeus MUCL 49355; 48 h; NA = No activity. The protocol: as §1, §7, §8, §9, §10, §11, §12
Details of data set [2]: method as in PMID 2143181. To be noted: cited from earlier work.
The test system of data set [3] is Pseudomonas aeruginosa PA14. The experiment in a line: Anti-biofilm activity, microtiter dish biofilm formation assay. In kind it is cell-based. To be noted: lowest concentration preventing biofilm formation by at least 50%, 24 h, NA = No activity. The protocol:
as §4, §5
as §3, with “The determination of the ability of isolated compounds to prevent biofilm formation of S. aureus DSM1104 (ATCC25923) and P. aeruginosa PA148 was performed using the microtiter dish biofilm formation assay described by O’Toole9 with minor modification provided in our recent publications 1, 6, 10–14. The biofilm forming strains were enriched overnight in CASO medium with and without 4% glucose for S. aureus and P. aeruginosa , respectively. After” for “After”
as §6

The test system of a further data set is Caenorhabditis elegans. The experiment in a line: Nematicidal activity microwell plate assay. The data set is classed as cell-based. Particulars: 18 h, tested 100, 50, 20 and 10 μg/mL, NA = No activity. The protocol:
as §1, §2
Nematicidal activity assay
The nematicidal activity of the new compounds against C. elegans was performed by a microwell plate assay reported by Stadler et al.5 with slightly modification. The modified protocol was reported by Helaly et al.6 The studied compounds were dissolved with methanol to a concentration of […] and subsequently diluted 1:100 with sterile distilled water. […] Finally, the nematodes were counted using a Malassez counting chamber and further adjusted to obtain a concentration of 500 nematodes/mL with sterile distilled water. […] The plate was incubated at 20 °C in the dark and nematicidal activity was recorded after 18 h of incubation. The nematodes were counted under a stereo microscope. […]

As usually defined, the IC50 is the concentration at which inhibition is half-maximal. In general, MIC refers to the lowest concentration that inhibits growth of the organism.

As to `CCCC[C@H](C)[C@@H]1CC(=O)N[C@@H](Cc2ccc(O)cc2)C(=O)N[C@@H](C)C(=O)N[C@H](CC(C)C)C(=O)O1` [Beauverolide N (4), beauverolide N], the IC50 at 5 days in the data set “Cytotoxicity assay (MTT)” (human, KB3.1 cells (HeLa, cervix carcinoma cell line), HeLa cell line KB3.1, MTT, five days, NA = No activity, a = Proliferation inhibition, no altered or dead cells, read-out: Cytotoxicity (IC50) KB3.1) was 16 µg/mL (≈ 31.8 µM). For the same compound, in data set [1], the “Anti-biofilm activity (MIC) SA” value amounted to 250 µg/mL. With `CC=CC=CC1Cc2cc(OC3OC(CO)C(OC)C(O)C3O)cc(O)c2O1` (centres unmarked) [Glucoasperfuran (3), glycoasperfuran], the “Antimicrobial activity (MIC) CT” value in the data set with Candida tenuis MUCL29892 is given as “devoid of activity”. The “Antimicrobial activity (MIC) BS” value in the data set with Bacillus subtilis DSM10 is reported as “devoid of activity”. Further, in the data set on Escherichia coli DSM498, the “Antimicrobial activity (MIC) EC” value is “devoid of activity”. Besides, the “Antimicrobial activity (MIC) MP” value in the data set with Mucor plumbeus MUCL49355 is “devoid of activity”. Turning to `C/C(=C\c1csc(C)n1)[C@@H]1C[C@@H]2O[C@]2(C)CCC[C@H](C)[C@H](O)[C@@H](C)C(=O)C(C)(C)[C@@H](O)CC(=O)O1` [Epothilone B, epothilone B, reference compound], the half-inhibitory concentration (IC50) at 5 days in the data set “Cytotoxicity assay (MTT)” (human, HeLa cell line KB3.1, MTT, five days, NA = No activity, a = Proliferation inhibition, no altered or dead cells, read-out: Cytotoxicity (IC50) KB3.1) worked out at 0.00022 µg/mL (≈ 0.000433 µM).

Take `CCCC[C@H](C)[C@@H]1CC(=O)N[C@@H](Cc2ccccc2)C(=O)N[C@@H](C)C(=O)N[C@H](CC(C)C)C(=O)O1` [Beauverolide I (5), beauverolide I]: half-maximal inhibition in the data set “Cytotoxicity assay (MTT)” (human) (IC50 at 5 days) required 20 µg/mL (≈ 41 µM). For `C/C=C/C=C/[C@H]1Cc2cc(O)cc(O)c2O1` [asperfuran], the Antifungal activity result in [2] is given as “moderately antifungal”. On to `O=C(O)c1cn(C2CC2)c2cc(N3CCNCC3)c(F)cc2c1=O` [Ciprofloxacin, ciprofloxacin, reference compound], for which the MIC in the data set on Bacillus subtilis DSM10 (read-out: Antimicrobial activity (MIC) BS) and with Escherichia coli DSM498 (read-out: Antimicrobial activity (MIC) EC) was 0.52 µg/mL (≈ 1.57 µM) throughout. As to `C/C(=C\c1csc(C)n1)[C@@H]1C[C@@H]2O[C@@H]2CCC[C@H](C)[C@H](O)[C@@H](C)C(=O)C(C)(C)[C@@H](O)CC(=O)O1` [Epothilone A, epothilone A], half-maximal inhibition in “Cytotoxicity assay (MTT)” (mouse, Murine fibroblast cell line L929, five days, NA = No activity) (IC50 at 5 days) required 0.0038 µg/mL (≈ 0.0077 µM). Consider `CN(C)[C@@H]1C(O)=C(C(N)=O)C(=O)[C@@]2(O)C(O)=C3C(=O)c4c(O)cccc4[C@@](C)(O)[C@H]3C[C@@H]12` [Tetracycline, tetracycline, reference compound], for which the “Anti-biofilm activity (MIC) PA” value in data set [3] turned out to be 1.9 µg/mL. Also, in data set [1], the “Anti-biofilm activity (MIC) SA” value is 1.9 µg/mL. In the case of `C[C@@H]1[C@H](O)[C@@H](C)/C=C/C=C/CC/C=C/C=C/C=C/C=C/C(O[C@H]2O[C@H](C)[C@@H](O)[C@H](N)[C@@H]2O)CC2O[C@](O)(CC(O)C(O)CCC(O)CC(O)CC(O)CC(=O)O[C@H]1C)CC(O)C2C(=O)O` (some centres unmarked) [Nystatin, nystatin, reference compound], the “Antimicrobial activity (MIC) CT” value with Candida tenuis MUCL29892 stood at 0.52 µg/mL. Besides, in the data set on Mucor plumbeus MUCL49355, the “Antimicrobial activity (MIC) MP” value was found to be 8.33 µg/mL. Turning to ivermectin [reference compound], the “Nematicidal CE” value with Caenorhabditis elegans worked out at 7.5 µg/mL.
